Results on five molecules are retold here after ChEMBL document CHEMBL1955784, “Novel 5-substituted 1H-tetrazoles as cyclooxygenase-2 (COX-2) inhibitors” (Bioorg Med Chem Lett, 2012).

Molecules are shown by their SMILES.

The first assay concerns the target T1, Prostaglandin G/H synthase 2 (Homo sapiens, UniProt P35354).
T1 sequence (P35354 whole entry): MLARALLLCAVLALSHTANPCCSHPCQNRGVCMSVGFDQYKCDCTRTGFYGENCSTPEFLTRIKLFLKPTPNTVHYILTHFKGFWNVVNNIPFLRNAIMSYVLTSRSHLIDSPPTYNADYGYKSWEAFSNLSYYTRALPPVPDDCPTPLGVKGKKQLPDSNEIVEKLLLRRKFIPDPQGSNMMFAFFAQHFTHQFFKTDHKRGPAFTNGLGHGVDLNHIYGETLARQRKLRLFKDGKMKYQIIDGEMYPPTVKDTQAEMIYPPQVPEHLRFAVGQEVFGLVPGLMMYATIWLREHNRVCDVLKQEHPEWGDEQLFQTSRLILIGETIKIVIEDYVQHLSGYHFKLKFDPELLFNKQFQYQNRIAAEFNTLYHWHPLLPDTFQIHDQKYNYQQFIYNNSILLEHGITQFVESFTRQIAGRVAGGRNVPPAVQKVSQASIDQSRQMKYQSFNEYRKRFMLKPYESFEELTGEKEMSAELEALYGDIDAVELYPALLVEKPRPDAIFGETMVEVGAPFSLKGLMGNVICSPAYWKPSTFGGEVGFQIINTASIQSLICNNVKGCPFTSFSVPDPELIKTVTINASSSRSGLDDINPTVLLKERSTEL
In words: Competitive inhibition of human recombinant COX2 by enzyme immunoassay.
In the case of `NS(=O)(=O)c1ccc(-n2nnnc2-c2ccc(Cl)cc2)cc1`, the IC50 stood at 62 µM.
With `CS(=O)(=O)c1ccc(-n2nnnc2-c2ccc([N+](=O)[O-])cc2)cc1`, the concentration for half-maximal inhibition (IC50) was 69 µM.
`Cc1ccc(-c2nnnn2-c2ccc(S(N)(=O)=O)cc2)cc1`: the IC50 was more than 100 µM.
`CS(=O)(=O)c1ccc(-n2nnnc2-c2ccc(F)cc2)cc1`: the IC50 stood at 15 µM.
The same measure, in the same setting: the result for `CS(=O)(=O)c1ccc(-n2nnnc2-c2ccc(Cl)cc2)cc1` reads 32 µM.

The target of the next assay is T2, Prostaglandin G/H synthase 1 (Ovis aries, UniProt P05979).
T2 sequence (P05979 whole entry): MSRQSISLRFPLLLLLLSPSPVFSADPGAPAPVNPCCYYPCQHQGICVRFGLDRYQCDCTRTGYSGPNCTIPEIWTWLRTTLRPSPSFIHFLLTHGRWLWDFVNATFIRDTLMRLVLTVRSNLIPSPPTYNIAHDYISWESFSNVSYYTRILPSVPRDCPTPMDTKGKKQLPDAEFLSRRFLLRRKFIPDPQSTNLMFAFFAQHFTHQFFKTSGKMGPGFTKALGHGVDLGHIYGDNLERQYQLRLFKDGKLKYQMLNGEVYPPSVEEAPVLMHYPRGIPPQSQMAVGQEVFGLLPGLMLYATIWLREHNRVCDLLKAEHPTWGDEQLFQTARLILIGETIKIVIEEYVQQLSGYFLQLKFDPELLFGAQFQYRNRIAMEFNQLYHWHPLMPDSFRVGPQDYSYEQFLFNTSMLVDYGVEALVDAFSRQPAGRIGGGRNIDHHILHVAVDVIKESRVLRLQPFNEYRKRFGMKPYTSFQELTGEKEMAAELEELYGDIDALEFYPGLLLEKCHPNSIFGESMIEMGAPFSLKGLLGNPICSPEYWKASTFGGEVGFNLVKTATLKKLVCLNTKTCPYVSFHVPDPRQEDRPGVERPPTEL
The assay can be described thus: Competitive inhibition of ovine COX1 by enzyme immunoassay.
Molecule `NS(=O)(=O)c1ccc(-n2nnnc2-c2ccc(Cl)cc2)cc1` showed an IC50 of more than 100 µM.
Still for that read-out and setting: under `CS(=O)(=O)c1ccc(-n2nnnc2-c2ccc([N+](=O)[O-])cc2)cc1` stands more than 100 µM; under `Cc1ccc(-c2nnnn2-c2ccc(S(N)(=O)=O)cc2)cc1`, more than 100 µM; under `CS(=O)(=O)c1ccc(-n2nnnc2-c2ccc(F)cc2)cc1`, more than 100 µM.
On the same count and under the same terms, under `CS(=O)(=O)c1ccc(-n2nnnc2-c2ccc(Cl)cc2)cc1` stands more than 100 µM.

As usually defined, the IC50 is the concentration that inhibits the measured activity by half.
